ChEMBL document CHEMBL4033791, “Creation of a Novel Class of Potent and Selective MutT Homologue 1 (MTH1) Inhibitors Using Fragment-Based Screening and Structure-Based Drug Design” (J Med Chem, 2018)
Values after ≈ are worked out from the molar mass of the structure shown. Active and inactive are the calls of the source. No cut-off for these calls is given here.

How the values were obtained:
[1] = Apparent permeability across apical to basolateral side in human Caco2 cells at 10 uM after 60 mins by LC-MS/MS analysis; conditions: Caco-2
[2] = Apparent permeability across basolateral to apical side in human Caco2 cells at 10 uM after 60 mins by LC-MS/MS analysis; conditions: Caco-2
[3] = Solubility of the compound in buffer
[4] = (§1) Intrinsic clearance in mouse liver microsomes at […] preincubated for 5 mins followed by NADPH addition measured by LC-MS/MS analysis; assay type: ADME, microsome; conditions: liver microsomes, read-out: CLH
[5] = Drug metabolism in mouse liver microsomes at […] preincubated for 5 mins followed by NADPH addition measured after 30 mins by LC-MS/MS analysis; assay type: ADME, microsome; conditions: read-out: Drug metabolism
[6] = Efflux ratio of permeability in human Caco2 cells at 10 uM after 60 mins by LC-MS/MS analysis; conditions: Caco-2
[7] = Apparent permeability across basolateral to apical side in human Caco2 cells at 2 uM after 2 hrs by LC-MS/MS analysis; assay type: ADME, cell-based; conditions: Caco-2
[8] = Efflux ratio of apparent permeability in human Caco2 cells at 2 uM after 2 hrs by LC-MS/MS analysis; conditions: Caco-2
[9] = Apparent permeability across apical to basolateral side in human Caco2 cells at 2 uM after 2 hrs by LC-MS/MS analysis; assay type: ADME, cell-based; conditions: Caco-2
[10] = biological target: Oxidized purine nucleoside triphosphate hydrolase (Homo sapiens) (UniProt P36639)
[11] = test system: Liver; test: as §1; assay type: ADME, microsome; conditions: microsomes, 1000 µM
[12] = biological target: Oxidized purine nucleoside triphosphate hydrolase (Homo sapiens) (UniProt P36639); test: Inhibition of human full length MTH1 at 20 uM using 8-Oxo-2-dGTP as substrate preincubated for 15 mins followed substrate addition measured after 1 hr by PPilight pyrophosphate-detection based assay

Structure (SMILES) | Papp A→B at 1 h, 10 µM [1] | Papp B→A at 1 h, 10 µM [2] | solubility [3] | microsomal CLint at 1000 µM [4] | metabolised at 0.5 h [5] | efflux ratio at 1 h, 10 µM [6] | also measured
c1ccc(C2COCCN2c2ccnc3[nH]ncc23)cc1 (centres undefined) | 88 ×10⁻⁶ cm/s | 73 ×10⁻⁶ cm/s | 1000 µM (≈ 280 µg/mL) | 232 µL/min/mg | 97% | 0.8 | –
NC(=O)c1cc2c(-c3cccc(Cl)c3)ccnc2[nH]1 | – | – | 100 µM (≈ 27.2 µg/mL) | – | – | – | –
c1ccc(C2CN(c3ccnc4[nH]ccc34)CCO2)cc1 (centres undefined) | – | – | 250 µM (≈ 69.8 µg/mL) | – | – | – | –
CCNC(=O)c1cc2c(N3CCCC3c3ccccc3)ccnc2[nH]1 (centres undefined) | 41 ×10⁻⁶ cm/s | 63 ×10⁻⁶ cm/s | 100 µM (≈ 33.4 µg/mL) | 130 µL/min/mg | 85% | 1.6 | –
CN(C)C(=O)c1cc2c(-c3cccc(Cl)c3)ccnc2[nH]1 | – | – | 250 µM (≈ 74.9 µg/mL) | – | – | – | –
CCNC(=O)c1cc2c(N3CCCC3C(C)(C)OC)ccnc2[nH]1 (centres undefined) | – | – | 1000 µM (≈ 330 µg/mL) | 54 µL/min/mg | 56% | – | Papp B→A at 2 h, 2 µM [7]: 225 ×10⁻⁶ cm/s; efflux ratio at 2 h, 2 µM [8]: 1.3; Papp A→B at 2 h, 2 µM [9]: 170 ×10⁻⁶ cm/s
c1cncc(-c2ccnc3[nH]ccc23)c1 | – | – | 2000 µM (≈ 390 µg/mL) | – | – | – | ΔTm [10]: 8.2 °C
Clc1cccc(-c2ccnc3[nH]ncc23)c1 | – | – | 100 µM (≈ 23 µg/mL) | – | – | – | –
O=C(NC1CC1)c1cc2c(-c3cccc(Cl)c3)ccnc2[nH]1 | 18 ×10⁻⁶ cm/s | 18 ×10⁻⁶ cm/s | 100 µM (≈ 31.2 µg/mL) | 115 µL/min/mg | 83% | 1 | –
Clc1cccc(-c2ccnc3[nH]ccc23)c1 | – | – | 250 µM (≈ 57.2 µg/mL) | – | – | – | –
CCNC(=O)c1cc2c(N3CCOC[C@@H]3C)ccnc2[nH]1 | – | – | 500 µM (≈ 144 µg/mL) | 36 µL/min/mg | 43% | – | Papp B→A at 2 h, 2 µM [7]: 209 ×10⁻⁶ cm/s; Papp A→B at 2 h, 2 µM [9]: 148 ×10⁻⁶ cm/s; ΔTm [10]: 21 °C
c1ccc(C2CCCN2c2ccnc3[nH]ccc23)cc1 (centres undefined) | 69 ×10⁻⁶ cm/s | 46 ×10⁻⁶ cm/s | 250 µM (≈ 65.8 µg/mL) | 244 µL/min/mg | 97% | 0.7 | –
COC(C)(C)C1CCCN1c1ccnc2[nH]ncc12 (centres undefined) | 75 ×10⁻⁶ cm/s | 66 ×10⁻⁶ cm/s | 1000 µM (≈ 260 µg/mL) | 153 µL/min/mg | 92% | 0.9 | –
c1ccc2c(c1)OCCN2c1ccnc2[nH]ccc12 | 39 ×10⁻⁶ cm/s | 35 ×10⁻⁶ cm/s | 250 µM (≈ 62.8 µg/mL) | – | 100% | 0.9 | microsomal intrinsic clearance [11]: Unstable
O=C(NC1COC1)c1cc2c(N3CCCC3c3cccnc3)ccnc2[nH]1 (centres undefined) | – | – | – | 24 µL/min/mg | 29% | – | –
c1cncc(C2CCCN2c2ccnc3[nH]ncc23)c1 (centres undefined) | 44 ×10⁻⁶ cm/s | 50 ×10⁻⁶ cm/s | 1000 µM (≈ 265 µg/mL) | 45 µL/min/mg | 54% | 1.1 | –
CCOC(=O)c1ccnc2[nH]ccc12 | – | – | 2000 µM (≈ 380 µg/mL) | – | – | – | –
CNC(=O)c1cc2c(-c3cccc(Cl)c3)ccnc2[nH]1 | – | – | 250 µM (≈ 71.4 µg/mL) | – | – | – | –

Structure (SMILES) | Papp A→B at 1 h, 10 µM [1] | Papp B→A at 1 h, 10 µM [2] | solubility [3] | microsomal CLint at 1000 µM [4] | metabolised at 0.5 h [5] | efflux ratio at 1 h, 10 µM [6] | also measured
Clc1cccc(-c2ccnc3[nH]c(-c4cnco4)cc23)c1 | – | – | 50 µM (≈ 14.8 µg/mL) | – | – | – | –
CNC(=O)c1cc2c(-c3cccnc3)ccnc2[nH]1 | – | – | 1000 µM (≈ 252 µg/mL) | – | – | – | ΔTm [10]: 14.4 °C
CCNC(=O)c1cc2c(N3CCOC[C@@H]3C)ccnc2n1C | – | – | – | – | – | – | inhibition [12]: inactive
CCNC(=O)c1cc2c(N3CCOCC3C3CC3)ccnc2[nH]1 (centres undefined) | – | – | 500 µM (≈ 157 µg/mL) | 45 µL/min/mg | 48% | – | Papp B→A at 2 h, 2 µM [7]: 79 ×10⁻⁶ cm/s; efflux ratio at 2 h, 2 µM [8]: 3.3; Papp A→B at 2 h, 2 µM [9]: 24 ×10⁻⁶ cm/s
N#Cc1cc2c(-c3cccc(Cl)c3)ccnc2[nH]1 | – | – | 250 µM (≈ 63.4 µg/mL) | – | – | – | –
c1ccc2c(c1)CCN(c1ccnc3[nH]ccc13)C2 | – | – | 10 µM (≈ 2.49 µg/mL) | – | – | – | –
c1cc(-c2cnc3[nH]ccc3c2)c2cc[nH]c2n1 | – | – | 500 µM (≈ 117 µg/mL) | – | – | – | ΔTm [10]: 7.9 °C
CCNC(=O)c1cc2c(N3CCOCC3c3ccccc3)ccnc2[nH]1 (centres undefined) | – | – | 250 µM (≈ 87.6 µg/mL) | 156 µL/min/mg | 90% | – | Papp B→A at 2 h, 2 µM [7]: 89 ×10⁻⁶ cm/s; efflux ratio at 2 h, 2 µM [8]: 1.4; Papp A→B at 2 h, 2 µM [9]: 63 ×10⁻⁶ cm/s
OCc1cc2c(-c3cccc(Cl)c3)ccnc2[nH]1 | – | – | 10 µM (≈ 2.59 µg/mL) | – | – | – | –
Cc1cc2c(-c3cccc(Cl)c3)ccnc2[nH]1 | – | – | 50 µM (≈ 12.1 µg/mL) | – | – | – | –
O=C(NC1COC1)c1cc2c(N3CCCC3c3ccccn3)ccnc2[nH]1 (centres undefined) | 7 ×10⁻⁶ cm/s | 46 ×10⁻⁶ cm/s | 250 µM (≈ 90.9 µg/mL) | 25 µL/min/mg | 33% | 6.7 | –
CCNC(=O)c1cc2c(N3CCCC3c3ccccn3)ccnc2[nH]1 (centres undefined) | 15 ×10⁻⁶ cm/s | 72 ×10⁻⁶ cm/s | 500 µM (≈ 168 µg/mL) | 48 µL/min/mg | 53% | 4.7 | –
c1cnc2c(c1)CCN2c1ccnc2[nH]ccc12 | – | – | 250 µM (≈ 59.1 µg/mL) | – | – | – | –
O=C(NC1CC1)c1cc2c(N3CCCC3c3ccccn3)ccnc2[nH]1 (centres undefined) | 13 ×10⁻⁶ cm/s | 76 ×10⁻⁶ cm/s | 250 µM (≈ 86.9 µg/mL) | 44 µL/min/mg | 50% | 5.7 | –
CCNC(=O)c1cc2c(-c3cccc(Cl)c3)ccnc2[nH]1 | – | – | 250 µM (≈ 74.9 µg/mL) | – | – | – | –
CCNC(=O)c1cc2c(N3CCCC3c3cccnc3)ccnc2[nH]1 (centres undefined) | 4 ×10⁻⁶ cm/s | 31 ×10⁻⁶ cm/s | 500 µM (≈ 168 µg/mL) | 49 µL/min/mg | 52% | 8.3 | –
c1ccc(C2CCCN2c2ccnc3[nH]ncc23)cc1 (centres undefined) | 74 ×10⁻⁶ cm/s | 63 ×10⁻⁶ cm/s | 250 µM (≈ 66.1 µg/mL) | 222 µL/min/mg | 99% | 0.8 | –
